# Measured values: PubChem BioAssay AID272 (DTP/NCI, 2004)
# Where “and” joins values, the source holds several entries; their conditions need not be identical. Equal entries are not always repeated. Records with an inconclusive call do not appear. Starred links: 1 amine or outer side, 2 acyl side, 3 side chain; linkers in the order of their positions; H or OH if unused. Positions of bridges follow the written chain, without caps; N, C: chain ends. Non-standard residues stand in square brackets, D forms with d. Residues, ends and D or L forms follow the SMILES beside them. Chains are numbered I, II in the order given. Actinocin(9to1) = Cc1c2oc3c(C)ccc(C(=O)[*:1])c3nc-2c(C(=O)[*:2])c(N)c1=O; aThr = C[C@H](O)[C@H](N)C(=O)O; NMeV = CN[C@H](C(=O)O)C(C)C; Sar = CNCC(=O)O
# Test system: Lewis lung carcinoma i.m., BDF1 mice, T/C %
# Assay: NCI In Vivo Anticancer Drug Screen. Data for tumor model Lewis Lung Carcinoma (intramuscular) in B6D2F1 (BDF1) mice
# Conditions: schedule: Q01DX011 (ip)
# Procedure, shortened: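 Antitumour activity is assessed in transplanted-tumour mice. Endpoint is survival or tumour size, normalised to vehicle-dosed controls (T/C).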
# [1] = endpoint: median survival time, dose: 6.25 mg/kg/injection, vehicle: saline, higher = longer survival
compound,measurement,setting,value
Clc1ncnc2nc[nH]c12,T/C,"endpoint: mean tumor weight (est.), dose: 6.25 mg/kg/injection, vehicle: other, higher = larger tumour",76 % of control
same,T/C,"endpoint: mean tumor weight (est.), dose: 12.5 mg/kg/injection, vehicle: other, higher = larger tumour",91 % of control
same,T/C,"endpoint: mean tumor weight (est.), dose: 25.0 mg/kg/injection, vehicle: other, higher = larger tumour",105 % of control
same,T/C,"endpoint: mean tumor weight (est.), dose: 50.0 mg/kg/injection, vehicle: other, higher = larger tumour",89 % of control
same,T/C,"endpoint: mean tumor weight (est.), dose: 100.0 mg/kg/injection, vehicle: other, higher = larger tumour",74 % of control
same,T/C,"endpoint: mean tumor weight, dose: 3.13 mg/kg/injection, vehicle: other, higher = larger tumour",119 % of control
same,T/C,"endpoint: mean tumor weight, dose: 6.25 mg/kg/injection, vehicle: other, higher = larger tumour",103 % of control
same,T/C,"endpoint: mean tumor weight, dose: 12.5 mg/kg/injection, vehicle: other, higher = larger tumour",98 % of control
same,T/C,"endpoint: mean tumor weight, dose: 25.0 mg/kg/injection, vehicle: other, higher = larger tumour",50 % of control
same,T/C,"endpoint: mean tumor weight, dose: 50.0 mg/kg/injection, vehicle: other, higher = larger tumour",73 % of control
same,T/C,"endpoint: median survival time, dose: 3.13 mg/kg/injection, vehicle: other, higher = longer survival",96 % of control and 110 % of control
same,T/C,"endpoint: median survival time, dose: 25.0 mg/kg/injection, vehicle: other, higher = longer survival",96 % of control
same,T/C,"endpoint: median survival time, dose: 50.0 mg/kg/injection, vehicle: other, higher = longer survival",100 % of control and 116 % of control
same,T/C,"endpoint: median survival time, dose: 100.0 mg/kg/injection, vehicle: other, higher = longer survival",88 % of control
O=S(=O)(O)C(Nc1ccccc1)c1ccccc1 (stereo not drawn),T/C,"endpoint: mean tumor weight, dose: 200.0 mg/kg/injection, vehicle: water, higher = larger tumour",79 % of control
same,T/C,"endpoint: mean tumor weight, dose: 400.0 mg/kg/injection, vehicle: water, higher = larger tumour",58 % of control
O=[N+]([O-])O.[Ga],T/C,"endpoint: mean tumor weight, dose: 3.12 mg/kg/injection, vehicle: saline, higher = larger tumour",101 % of control
same,T/C,"endpoint: mean tumor weight, dose: 6.25 mg/kg/injection, vehicle: saline, higher = larger tumour",104 % of control
same,T/C,"endpoint: mean tumor weight, dose: 12.5 mg/kg/injection, vehicle: saline, higher = larger tumour",85 % of control
same,T/C,"endpoint: mean tumor weight, dose: 25.0 mg/kg/injection, vehicle: saline, higher = larger tumour",84 % of control
same,T/C,"endpoint: median survival time, dose: 3.12 mg/kg/injection, vehicle: saline, higher = longer survival",102 % of control
same,T/C,[1],97 % of control
same,T/C,"endpoint: median survival time, dose: 12.5 mg/kg/injection, vehicle: saline, higher = longer survival",106 % of control
same,T/C,"endpoint: median survival time, dose: 25.0 mg/kg/injection, vehicle: saline, higher = longer survival",93 % of control
CCCCCCCCCCCC[N+](C)(C)C (tested in a mixture with another compound),T/C,[1],110 % of control
"Cc1c2oc3c(C)ccc(C(=O)N[C@@H]4C(=O)N[C@H](C(C)C)C(=O)N5CCC[C@H]5C(=O)N(C)CC(=O)N(C)[C@@H](C(C)C)C(=O)O[C@H]4C)c3nc-2c(C(=O)N[C@@H]2C(=O)N[C@H](C(C)C)C(=O)N3CCC[C@H]3C(=O)N(C)CC(=O)N(C)[C@@H](C(C)C)C(=O)O[C@H]2C)c(N)c1=O (I: [aThr][dV]P[Sar][NMeV] / II: [aThr][dV]P[Sar][NMeV]; ester I:1-I:C, II:1-II:C; linker I:N-II:N via Actinocin(9to1))",T/C,"endpoint: median survival time, dose: 0.01 mg/kg/injection, vehicle: water, higher = longer survival",99 % of control and 110 % of control and 112 % of control
same,T/C,"endpoint: median survival time, dose: 0.02 mg/kg/injection, vehicle: water, higher = longer survival",93 % of control and 94 % of control and 110 % of control
same,T/C,"endpoint: median survival time, dose: 0.04 mg/kg/injection, vehicle: water, higher = longer survival",110 % of control
same,T/C,"endpoint: median survival time, dose: 0.05 mg/kg/injection, vehicle: water, higher = longer survival",99 % of control and 100 % of control
CCC/C(C)=N/Nc1ccccn1,T/C,"endpoint: mean tumor weight (est.), dose: 12.5 mg/kg/injection, vehicle: saline with Tween-80, higher = larger tumour",85 % of control
same,T/C,"endpoint: mean tumor weight (est.), dose: 25.0 mg/kg/injection, vehicle: saline with Tween-80, higher = larger tumour",84 % of control
same,T/C,"endpoint: mean tumor weight (est.), dose: 50.0 mg/kg/injection, vehicle: saline with Tween-80, higher = larger tumour",81 % of control
same,T/C,"endpoint: median survival time, dose: 12.5 mg/kg/injection, vehicle: saline with Tween-80, higher = longer survival",94 % of control
same,T/C,"endpoint: median survival time, dose: 25.0 mg/kg/injection, vehicle: saline with Tween-80, higher = longer survival",88 % of control
O=C(CCCl)N1CCN(C(=O)CCCl)c2ccccc21,T/C,"endpoint: mean tumor weight (est.), dose: 150.0 mg/kg/injection, vehicle: saline with Tween-80, higher = larger tumour",83 % of control
same,T/C,"endpoint: mean tumor weight (est.), dose: 300.0 mg/kg/injection, vehicle: saline with Tween-80, higher = larger tumour",82 % of control
same,T/C,"endpoint: median survival time, dose: 150.0 mg/kg/injection, vehicle: saline with Tween-80, higher = longer survival",108 % of control
same,T/C,"endpoint: median survival time, dose: 300.0 mg/kg/injection, vehicle: saline with Tween-80, higher = longer survival",93 % of control
